# Where two headings read alike, the source gives them in different places.
# Molecular target: T1, mouse TMEM16A mutant Q637A (Mus musculus, UniProt Q8BHY3, Q637A)
# T1 construct: expressed in transfected cells; host or cells: HEK293T
# T1 sequence (Q8BHY3 1-960 Q637A): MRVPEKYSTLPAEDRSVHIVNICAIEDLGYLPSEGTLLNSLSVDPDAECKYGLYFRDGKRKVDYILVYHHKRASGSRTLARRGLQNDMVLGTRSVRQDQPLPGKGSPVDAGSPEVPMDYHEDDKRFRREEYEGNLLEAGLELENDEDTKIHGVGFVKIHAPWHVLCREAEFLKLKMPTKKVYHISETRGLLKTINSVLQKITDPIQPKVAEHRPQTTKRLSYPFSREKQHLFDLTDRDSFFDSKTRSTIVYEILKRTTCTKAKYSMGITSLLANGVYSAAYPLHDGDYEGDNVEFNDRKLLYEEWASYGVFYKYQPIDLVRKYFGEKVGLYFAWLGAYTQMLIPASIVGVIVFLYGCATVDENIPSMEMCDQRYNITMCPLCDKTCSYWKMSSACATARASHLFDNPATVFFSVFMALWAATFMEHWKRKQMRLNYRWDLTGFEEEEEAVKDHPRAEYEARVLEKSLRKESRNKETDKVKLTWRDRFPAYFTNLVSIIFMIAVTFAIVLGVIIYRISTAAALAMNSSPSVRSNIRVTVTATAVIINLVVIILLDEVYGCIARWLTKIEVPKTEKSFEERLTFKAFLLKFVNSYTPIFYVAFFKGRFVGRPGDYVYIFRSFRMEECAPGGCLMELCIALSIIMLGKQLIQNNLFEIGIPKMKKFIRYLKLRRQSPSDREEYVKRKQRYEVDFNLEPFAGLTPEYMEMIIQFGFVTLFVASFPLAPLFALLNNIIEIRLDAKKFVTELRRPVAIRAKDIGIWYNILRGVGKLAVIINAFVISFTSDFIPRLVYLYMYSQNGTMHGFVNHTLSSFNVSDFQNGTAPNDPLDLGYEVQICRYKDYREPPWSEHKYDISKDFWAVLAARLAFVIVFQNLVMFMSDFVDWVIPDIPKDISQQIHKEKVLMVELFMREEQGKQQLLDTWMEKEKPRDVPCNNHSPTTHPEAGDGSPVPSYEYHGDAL
# Test: Inside-out patch recording of 1PBC block, mutant Q637A
# Type: cell-based
# Conditions: for remaining activity at 1 µM: 1PBC conc 1; for remaining activity at 1 µM / remaining activity at 3 µM / remaining activity at 10 µM / remaining activity at 30 µM: read-out: relative current in 1PBC (avr); for remaining activity at 3 µM: 1PBC conc 3; for remaining activity at 10 µM: 1PBC conc 10; for remaining activity at 30 µM: 1PBC conc 30
# Description: HEK293T cells (ATCC CRL-1573) were maintained in Dulbecco’s modified Eagle’s medium (DMEM; Sigma-Aldrich) supplemented with 10 U ml^−1 penicillin, 0.1 mg ml^−1 streptomycin (Sigma-Aldrich), 2 mM L-glutamine (Sigma-Aldrich), and 10% FBS (Sigma-Aldrich) in a humidified atmosphere containing 5% CO2 at 37 °C. HEK293S GnTI^− cells (ATCC CRL-3022) were maintained in HyClone HyCell TransFx-H medium (GE Healthcare) supplemented with 10 U ml^−1 penicillin, 0.1 mg ml^−1 streptomycin, 4 mM L-glutamine, 0.15% poloxamer 188 (Sigma-Aldrich), and 1% FBS in an atmosphere containing 5% CO2 at 185 rpm at 37 °C. The ac splice variant of mouse TMEM16A (UniProt ID: Q8BHY3), mouse TMEM16B (UniProt ID: Q8CFW1), or mouse TMEM16F (UniProt ID: Q6P9J9) bearing a 3C cleavage site, a Venus YFP, a Myc tag, and a Streptavidin-binding peptide (SBP) downstream of the open reading frame in a modified pcDNA3.1 vector (Invitrogen) were used as described previously[21],[31]. Mutations were introduced using a modified QuikChange method[58] and were verified by sequencing.
# HEK293T cells were transfected with 3–4 μg DNA per 6 cm Petri dish using the calcium phosphate co-precipitation method and were used within 24–96 h after transfection. Recordings were performed on inside-out patches excised from HEK293T cells expressing the construct of interest. Patch pipettes were pulled from borosilicate glass capillaries (O.D. 1.5 mm, I.D. 0.86 mm, Sutter Instrument) and were fire-polished with a microforge (Narishige) before use. Pipette resistance was typically 3–8 MΩ when filled with the recording solutions detailed below. Seal resistance was typically 4 GΩ or higher. Voltage-clamp recordings were made using Axopatch 200B, Digidata 1550, and Clampex 10.7 (Molecular Devices). Analog signals were filtered with the in-built 4-pole Bessel filter at 10 kHz and were digitized at 20 kHz. Solution exchange was achieved using a gravity-fed system through a theta glass pipette mounted on an ultra-fast piezo-driven stepper (Siskiyou). […] All recordings were performed at 20 °C.
# A symmetrical ionic condition was used throughout. Stock solution with Ca^2+-EGTA contained 150 mM NaCl, 5.99 mM Ca(OH)2, 5 mM EGTA, and 10 mM HEPES at pH 7.40. Stock solution with EGTA contained 150 mM NaCl, 5 mM EGTA, and 10 mM HEPES at pH 7.40. Free Ca^2+ concentrations were adjusted by mixing the stock solutions at the required ratios calculated using the WEBMAXC program (http://web.stanford.edu/~cpatton/webmaxcS.htm). Patch pipettes were filled with the stock solution with Ca^2+-EGTA, which has a free Ca^2+ concentration of 1 mM. 1PBC (ChemBridge) stock was reconstituted in anhydrous DMSO (Sigma-Aldrich) at 100 mM and stored at −20 °C. Working solutions with 1PBC were prepared by serial dilution. Unless otherwise stated, experiments were performed at a saturating Ca^2+ concentration as shown in Supplementary Table 1 and the primary data were corrected for current rundown as described previously[21],[25].
# Concentration-response relations, obtained from the ratio of the I-V plots before and after the application of the blocker, were fitted to the Hill equation,1 I/Imax=1/1+IC50/[blocker]^h where I/Imax is the normalized current responses, IC50 defines the concentration at which inhibition is at its half-maximum, and h is the Hill coefficient.
compound,measurement,setting,value
N#Cc1c(C(F)(F)F)cc(O)n2c1nc1ccccc12 [1PBC],IC50,"0 mV, 2 µM Ca2+",1820 nM
same,remaining activity at 1 µM,0 mV,65.8%
same,remaining activity at 3 µM,0 mV,36.3%
same,remaining activity at 10 µM,0 mV,15.5%
same,remaining activity at 30 µM,0 mV,6.35%
same,IC50,"20 mV, 2 µM Ca2+",1400 nM
same,remaining activity at 1 µM,20 mV,59.7%
same,remaining activity at 3 µM,20 mV,30.3%
same,remaining activity at 10 µM,20 mV,12.3%
same,remaining activity at 30 µM,20 mV,4.62%
same,IC50,"40 mV, 2 µM Ca2+",1150 nM
same,remaining activity at 1 µM,40 mV,54.8%
same,remaining activity at 3 µM,40 mV,26.2%
same,remaining activity at 10 µM,40 mV,10.3%
same,remaining activity at 30 µM,40 mV,3.87%
same,IC50,"60 mV, 2 µM Ca2+",956 nM
same,remaining activity at 1 µM,60 mV,49.7%
same,remaining activity at 3 µM,60 mV,22.8%
same,remaining activity at 10 µM,60 mV,9%
same,remaining activity at 30 µM,60 mV,3.77%
same,log-fold IC50 (change of mutant vs WT),80 mV,-0.3333
same,IC50,"80 mV, 2 µM Ca2+",880 nM
same,remaining activity at 1 µM,80 mV,47.5%
same,remaining activity at 3 µM,80 mV,21%
same,remaining activity at 10 µM,80 mV,9.17%
same,remaining activity at 30 µM,80 mV,3.99%
same,IC50,"100 mV, 2 µM Ca2+",898 nM
same,remaining activity at 1 µM,100 mV,48.7%
same,remaining activity at 3 µM,100 mV,20.5%
same,remaining activity at 10 µM,100 mV,9.32%
same,remaining activity at 30 µM,100 mV,4.29%
same,IC50,"120 mV, 2 µM Ca2+",985 nM
same,remaining activity at 1 µM,120 mV,50.9%
same,remaining activity at 3 µM,120 mV,22%
same,remaining activity at 10 µM,120 mV,10.5%
same,remaining activity at 30 µM,120 mV,5.23%
same,IC50,"140 mV, 2 µM Ca2+",1170 nM
same,remaining activity at 1 µM,140 mV,55.6%
same,remaining activity at 3 µM,140 mV,24.7%
same,remaining activity at 10 µM,140 mV,12.4%
same,remaining activity at 30 µM,140 mV,6.82%
same,IC50,"-20 mV, 2 µM Ca2+",2340 nM
same,remaining activity at 1 µM,-20 mV,71.8%
same,remaining activity at 3 µM,-20 mV,42.4%
same,remaining activity at 10 µM,-20 mV,18.6%
same,remaining activity at 30 µM,-20 mV,8.09%
same,IC50,"-40 mV, 2 µM Ca2+",3080 nM
same,remaining activity at 1 µM,-40 mV,76.6%
same,remaining activity at 3 µM,-40 mV,49.5%
same,remaining activity at 10 µM,-40 mV,23.3%
same,remaining activity at 30 µM,-40 mV,10.7%
same,IC50,"-60 mV, 2 µM Ca2+",4040 nM
same,remaining activity at 1 µM,-60 mV,81.3%
same,remaining activity at 3 µM,-60 mV,56.4%
same,remaining activity at 10 µM,-60 mV,28.3%
same,remaining activity at 30 µM,-60 mV,13.4%
same,IC50,"-80 mV, 2 µM Ca2+",5190 nM
same,remaining activity at 1 µM,-80 mV,84.8%
same,remaining activity at 3 µM,-80 mV,62.7%
same,remaining activity at 10 µM,-80 mV,33.3%
same,remaining activity at 30 µM,-80 mV,16.6%
same,IC50,"-100 mV, 2 µM Ca2+",6660 nM
same,remaining activity at 1 µM,-100 mV,87.3%
same,remaining activity at 3 µM,-100 mV,68.5%
same,remaining activity at 10 µM,-100 mV,38.7%
same,remaining activity at 30 µM,-100 mV,20.5%
same,IC50,"-120 mV, 2 µM Ca2+",8290 nM
same,remaining activity at 1 µM,-120 mV,88.8%
same,remaining activity at 3 µM,-120 mV,72.5%
same,remaining activity at 10 µM,-120 mV,44.2%
same,remaining activity at 30 µM,-120 mV,24.7%
same,IC50,"-140 mV, 2 µM Ca2+",10200 nM
same,remaining activity at 1 µM,-140 mV,89.3%
same,remaining activity at 3 µM,-140 mV,76.3%
same,remaining activity at 10 µM,-140 mV,49.3%
same,remaining activity at 30 µM,-140 mV,28.8%
same,IC50,"Q637A, V 0 mV",1820 nM
same,IC50,"Q637A, V 20 mV",1400 nM
same,IC50,"Q637A, V 40 mV",1150 nM
same,IC50,"Q637A, V 60 mV",956 nM
same,IC50,"Q637A, V 80 mV",880 nM
same,IC50,"Q637A, V 100 mV",898 nM
same,IC50,"Q637A, V 120 mV",985 nM
same,IC50,"Q637A, V 140 mV",1170 nM
same,IC50,"Q637A, V -20 mV",2340 nM
same,IC50,"Q637A, V -40 mV",3080 nM
same,IC50,"Q637A, V -60 mV",4040 nM
same,IC50,"Q637A, V -80 mV",5190 nM
same,IC50,"Q637A, V -100 mV",6660 nM
same,IC50,"Q637A, V -120 mV",8290 nM
same,IC50,"Q637A, V -140 mV",10200 nM

# — PMC9120017, “Inhibition mechanism of the chloride channel TMEM16A by the pore blocker 1PBC” (Nature Communications, 2022)
